Assay results taken from patent US12133530B2, “Herbicidal mixtures comprising L-glufosinate or its salt and at least one VLCFA inhibitor” (BASF SE, priority 2017, dated 2024).

Experiments:
[1] = system: ABUTH (Abutilon theophrasti); assay: Post-emergence greenhouse pot test, herbicidal activity (scale 0 to 100); format: in vivo
Method: (§1) However, the weed control afforded by the compounds, mixtures or compositions is not limited to these species. The analysis of synergism or antagonism between the mixtures or compositions was determined using Colby's equation.
(§2) The culture containers used were plastic flowerpots containing loamy sand with approximately 3.0% of humus as the substrate. The seeds of the test plants were sown separately for each species and/or resistant biotype. For the pre-emergence treatment, the active ingredients, which had been suspended or emulsified in water, were applied directly after sowing by means of finely distributing nozzles. The containers were irrigated gently to promote germination and growth and subsequently covered with transparent plastic hoods until the plants had rooted. This cover caused uniform germination of the test plants, unless this had been impaired by the active ingredients. For the post-emergence treatment, the test plants were first grown to a height of 3 to 15 cm, depending on the plant habit, and only then treated with the active ingredients which had been suspended or emulsified in water. For this purpose, the test plants were either sown directly and grown in the same containers, or they were first grown separately as seedlings and transplanted into the test containers a few days prior to treatment. Depending on the species, the plants were kept at 10-25° C. or 20-35° C., respectively. The test period extended to 20 days after treatment. During this time, the plants were tended, and their response to the individual treatments was evaluated. The evaluation was carried out by using a scale from 0 to 100. 100 means no emergence of the plants or complete destruction of at least the above-ground parts, and 0 means no damage, or normal course of growth. Data shown are the mean of two replications.

AVEFA (Avena fatua) = assay: as above; format: in vivo; settings: scale 0-100
Method: as §1, §2

Cn1nc(C(F)(F)F)c(CS(=O)(=O)C2=NOC(C)(C)C2)c1OC(F)F [Pyroxasulfone, pyroxasulfone]
Herbicidal activity against ABUTH, Found ([1]; Pyroxasulfone 25 g ai/ha alone, scale 0-100): 40
Herbicidal activity against ABUTH, Found ([1]; Pyroxasulfone 50 g ai/ha alone, scale 0-100): 70

CCOCCN(C(=O)CCl)C(=C(C)C)c1ccccc1 [Pethoxamid, pethoxamid]
Herbicidal activity against ABUTH, Found ([1]; Pethoxamid 50 g ai/ha alone, scale 0-100): 0
Herbicidal activity against ABUTH, Found ([1]; Pethoxamid 100 g ai/ha alone, scale 0-100): 0
Herbicidal activity against AVEFA, Found (AVEFA (Avena fatua); Pethoxamid 50 g ai/ha alone): 0
Herbicidal activity against AVEFA, Found (AVEFA (Avena fatua); Pethoxamid 100 g ai/ha alone): 0

CP(=O)(O)CC[C@H](N)C(=O)O [L-Glufosinate, (2S)-2-amino-4-[hydroxy(methyl)phosphinoyl]butyric acid]
Herbicidal activity against ABUTH, Found ([1]; L-Glufosinate 75 g ai/ha alone, scale 0-100): 0
Herbicidal activity against ABUTH, Found ([1]; L-Glufosinate 150 g ai/ha alone, scale 0-100): 55
Herbicidal activity against ABUTH, Found ([1]; L-Glufosinate 200 g ai/ha alone, scale 0-100, mean of two replications): 65
Herbicidal activity against AVEFA, Found (AVEFA (Avena fatua); L-Glufosinate 75 g ai/ha alone): 0
Herbicidal activity against AVEFA, Found (AVEFA (Avena fatua); L-Glufosinate 150 g ai/ha alone): 0
